What was measured:
[1] = system: Dahl salt-sensitive hypertension rats; assay: Dahl salt-sensitive hypertension rat model, systolic blood pressure; assay type: in vivo; details: for % change in blood pressure: one hour after administration, systolic
Description: (Creation of Dahl Salt-sensitive Hypertension Rat Model)
Dahl salt-sensitive hypertension rats (7 weeks old) were used in the experiment. They were fed a 4% NaCl high-salt chow (0.6% for normal chow), but were allowed to drink water without any restriction. At two weeks after high-salt loading, the animals confirmed to develop hypertension were divided into the following 4 groups for use in the experiment.
(Experimental Animal Groups)
After loading the high-salt chow for two weeks as described above, an acute experiment was performed. On the day of the experiment, the systolic blood pressure (before administration) was measured for each animal under non-anesthesia conditions using a noninvasive sphygmomanometer. The animals were then administered orally with the solvent or SEA0400(3, 10, or 30 mg/kg) and monitored over time for their systolic blood pressure.

[2] = system: Brain microsomal Na+/Ca2+ exchanger; assay: Brain microsomal Na+/Ca2+ exchanger (Na-dependent 45Ca uptake); assay type: biochemical; details: rat brain microsomes; read-out: Inhibitory activity against Na+/Ca2+ exchange (Na-dependent 45Ca uptake), IC50 value, Brain
Method: Method of Measuring for Brain Microsomal Na^+/Ca^2+ Exchanger
Brain microsomes (1.5 mg/ml) obtained from 8-week-old rats were pre-treated with 160 mM NaCl-containing buffer to cause Na loading into membrane vesicles. This suspension was diluted 50-fold with 20 μM ^45CaCl2-containing buffer to induce ^45Ca uptake, followed by dilution with the buffer (0° C.) to stop the reaction. The membrane vesicles were immediately collected on a nitrocellulose filter. Subsequently, ^45Ca trapped inside the membrane vesicles was determined by liquid scintillation counting. The above assay for Na^+/Ca^2+ exchange activity in brain microsomes was performed according to the procedures described in J. Biol. Chem., vol. 257, p. 5111 (1982).

[3] = molecular target: renal cortex-derived Na+/Ca2+ exchanger (NCX1) (Rattus norvegicus, UniProt Q01728); assay: Rat renal cortex-derived BLMVs Na+/Ca2+ exchange activity (Na-dependent 45Ca uptake); assay type: biochemical; details: read-out: Inhibitory activity against Na+/Ca2+ exchange (Na-dependent 45Ca uptake), IC50 value, Renal cortex
Method: BLMVs were prepared from rat renal cortex and assayed for Na^+/Ca^2+ exchange activity according to the procedures described in Am. J. Physiol., vol. 266, p. F785 (1994). After being excised from rats, the kidneys were placed in ice-cold sucrose buffer ([…], 0.1 mM PMSF, 10 mM Tris-HCl (pH 7.6)) and decapsulated. The isolated cortex was then finely minced in the sucrose buffer and homogenized sequentially with a Dounce-type homogenizer and a Polytron-type homogenizer, followed by centrifugation at 2500 g for 15 minutes to collect the supernatant. Centrifugation was repeated at 24000 g for 20 minutes to collect the white fluffy portion of the pellet. After further addition of the sucrose buffer, the collected fraction was homogenized with a Dounce-type homogenizer, supplemented with Percoll and then centrifuged at 30000 g for 35 minutes to collect the middle layer. After addition of buffer (100 mM KCl, 100 mM mannitol, 5 mM HEPES-Tris (pH 7.4)), centrifugation was carried out at 34000 g for 30 minutes to collect the loose white pellet (BLMVs). […] Subsequently, the filter was washed twice with 2 ml stop solution and then the amount of ^45Ca trapped inside the BLMVs was determined by using liquid scintillation method.

[4] = molecular target: T1, Canine cardiac sarcolemmal vesicle Na+/Ca2+ exchanger (Canis lupus familiaris, UniProt P23685); assay: Canine cardiac sarcolemmal vesicle Na+/Ca2+ exchanger (Na-dependent 45Ca uptake); assay type: biochemical; details: canine cardiac sarcolemmal vesicles; read-out: Inhibitory activity against Na+/Ca2+ exchange (Na-dependent 45Ca uptake), IC50 value, Cardiac sarcolemma
T1 construct: Canine cardiac sarcolemmal vesicles (0.5 mg/ml) were prepared by centrifugal fractionation; from tissue; host or cells: canine cardiac sarcolemmal vesicles
Method: Method of Measuring for Canine Cardiac Sarcolemmal Vesicle Na^+/Ca^2+ Exchanger
Canine cardiac sarcolemmal vesicles (0.5 mg/ml) were prepared by centrifugal fractionation as described in Methods enzymology, vol. 157, p. 85 (1988) and suspended in Solution A (20 mM MOPS-Tris (pH 7.4), 160 mM NaCl or KCl), followed by incubation at room temperature for about one hour to cause Na or K loading into the vesicles. This suspension was diluted 50-fold with 20 μM ^45CaCl2-containing buffer to induce ^45Ca uptake, followed by dilution with the buffer (0° C.) to stop the reaction. The membrane vesicles were immediately collected on a nitrocellulose filter. Subsequently, ^45Ca trapped inside the membrane vesicles was determined by liquid scintillation counting. The Na^+/Ca^2+ exchange activity was evaluated by subtracting the value obtained for K loading from the value obtained for Na loading. The above assay for Na^+/Ca^2+ exchange activity in canine cardiac sarcolemmal vesicles was performed according to the procedures described in J. Biol. Chem., vol. 257, p. 5111 (1982).

| Structure (SMILES) | % change in blood pressure ([1]; 3 mg/kg oral) [%] | Reduction in blood pressure compared with the solvent group ([1]; 10 mg/kg and 30 mg/kg groups, oral) | % change in blood pressure ([1]; 10 mg/kg oral) [%] | % change in blood pressure ([1]; 30 mg/kg oral) [%] | IC50 [2] [µM] | IC50 [3] [µM] | IC50 [4] [µM] |
| --- | --- | --- | --- | --- | --- | --- | --- |
| CCOc1ccc(Oc2ccc(OCc3cc(F)ccc3F)cc2)c(N)c1 [SEA0400, 2-[4-[(2,5-difluorophenyl)methoxy]phenoxy]-5-ethoxyaniline] | −9.5±1.8 | significant reduction in blood pressure | −12.0±0.9 | −12.7±3.4 | 0.2 |  |  |
| N=C(N)SCCc1ccc(OCc2ccc([N+](=O)[O-])cc2)cc1 [K-BR7943, 2-[2-[4-[nitrobenzyloxy]phenyl]ethyl]isothio-ureamethanesulfonate] |  |  |  |  | 11 | 6.8 | 7 |
